Assay results reported in ChEMBL document CHEMBL4622990, “Synthesis and Antitumor Activity of C-7-Alkynylated and Arylated Pyrrolotriazine C-Ribonucleosides” (ACS Med Chem Lett, 2020).
The source made the active and inactive calls. The rule behind the calls is not given here.

How the values were obtained:
NCI-H460 = assay: Antiproliferative activity against human NCI-H460 cells assessed as reduction in cell viability incubated for 72 hrs by IncuCyte live-cell imaging assay; format: functional, cell-based; settings: NCI-H460, 72 h
HCT-116 = assay: Antiproliferative activity against human HCT116 cells assessed as reduction in cell viability incubated for 72 hrs by IncuCyte live-cell imaging assay; format: functional, cell-based; settings: HCT-116, 72 h
K562 = assay: Antiproliferative activity against human K562 cells assessed as reduction in cell viability incubated for 72 hrs by IncuCyte live-cell imaging assay; format: functional, cell-based; settings: K562, 72 h
HL-60 = assay: Antiproliferative activity against human HL60 cells assessed as reduction in cell viability incubated for 72 hrs by IncuCyte live-cell imaging assay; format: functional, cell-based; settings: HL-60, 72 h
Z-138 = assay: Antiproliferative activity against human Z138 cells assessed as reduction in cell viability incubated for 72 hrs by IncuCyte live-cell imaging assay; format: functional, cell-based; settings: Z-138, 72 h
LN-229 = assay: Antiproliferative activity against human LN229 cells assessed as reduction in cell viability incubated for 72 hrs by IncuCyte live-cell imaging assay; format: functional, cell-based; settings: LN-229, 72 h
[1] = Antiproliferative activity against human DND41 cells assessed as reduction in cell viability incubated for 72 hrs by IncuCyte live-cell imaging assay; format: functional, cell-based; settings: DND41, 72 h
CAPAN-1 [2] = assay: Antiproliferative activity against human Capan1 cells assessed as reduction in cell viability incubated for 72 hrs by IncuCyte live-cell imaging assay; format: functional, cell-based; settings: CAPAN-1, 72 h
HEp-2 [3] = assay: Induction of DNA damage in human Hep2 cells assessed as gamma-H2AX positive cells at 10 uM after 24 hrs by DAPI staining based immunofluorescence analysis relative to control; format: functional
HEp-2 [4] = assay: Induction of DNA damage in human Hep2 cells assessed as gamma-H2AX positive cells at 1 uM after 24 hrs by DAPI staining based immunofluorescence analysis relative to control; format: functional
HEp-2 [5] = assay: Induction of DNA damage in human Hep2 cells assessed as gamma-H2AX positive cells at 100 uM after 24 hrs by DAPI staining based immunofluorescence analysis (reference value: 0.51%); format: functional
Salmon testes DNA = assay: Binding affinity to salmon sperm DNA assessed as DNA intercalation at 20 uM incubated for 20 mins by acridine orange orange dye based fluorescence polarization assay; format: nucleic-acid assay; settings: Salmonidae
HEp-2 [6] = assay: Induction of DNA damage in human Hep2 cells assessed as increase in gamma-H2AX positive cells after 24 hrs by DAPI staining based immunofluorescence analysis; format: functional, cell-based
CAPAN-1 [7] = assay: Induction of apoptosis in human Capan1 cells assessed as increase in apoptotic cells incubated for 72 hrs and measured at 3 hrs interval by IncuCyte Caspase 3/7 Green reagent based assay; format: functional, cell-based
PBMC = assay: Induction of apoptosis in human PBMC assessed as caspase 3/7 activation at 0.0064 to 100 uM incubated for 72 hrs and measured at 3 hrs interval by IncuCyte Caspase 3/7 Green reagent based assay; format: cell-based
Tubulin (Homo sapiens) = Tubulin (Homo sapiens) (UniProt P68371+Q9H4B7+P0DPH7+P68366+Q13509+Q71U36+P04350+Q3ZCM7+P07437+P68363+Q9BQE3+Q6PEY2+Q13885+Q9BVA1+Q9BUF5); assay: Inhibition of tubulin polymerization in human Hep2 cells at 100 uM after 3 hrs by DAPI-staining based fluorescence microscopic assay; format: cell-based; settings: HEp-2

SMILES | IC50 (NCI-H460) [µM] | IC50 (HCT-116) [µM] | IC50 (K562) [µM] | IC50 (HL-60) [µM] | IC50 (Z-138) [µM] | IC50 (LN-229) [µM] | IC50 [1] [µM] | IC50 (CAPAN-1 [2]) [µM] | Activity (HEp-2 [3]) [%] | Activity (HEp-2 [4]) [%] | Activity (HEp-2 [5]) [%] | Activity (Salmon testes DNA) | Activity (HEp-2 [6]) | Activity (CAPAN-1 [7]) | Activity (PBMC) | inhibition (Tubulin (Homo sapiens))
CN[C@@H]1C[C@H]2O[C@@](C)([C@@H]1OC)n1c3ccccc3c3c4c(c5c6ccccc6n2c5c31)C(=O)NC4 [STAUROSPORINE] | 0.06 | 0.04 | 0.04 | 0.04 |  |  |  |  |  |  |  |  |  |  |  | 
Nc1ncnn2c([C@@H]3O[C@H](CO)[C@@H](O)[C@H]3O)cc(C#Cc3ccccc3)c12 | 38.5 | 46.9 | > 100 | > 100 | 41.4 | 88 | 62.6 | 37.7 |  |  |  |  |  |  |  | 
CC(=O)O[C@@]12CO[C@@H]1C[C@H](O)[C@@]1(C)C(=O)[C@H](O)C3=C(C)[C@@H](OC(=O)[C@H](O)[C@@H](NC(=O)OC(C)(C)C)c4ccccc4)C[C@@](O)([C@@H](OC(=O)c4ccccc4)[C@H]21)C3(C)C [DOCETAXEL ANHYDROUS] | 0.004 | 0.007 | 0.009 | 0.05 | 0.004 | 0.002 | 0.005 | 0.025 |  |  |  |  |  |  |  | 
Nc1ncnn2c([C@@H]3O[C@H](CO)[C@@H](O)[C@H]3O)cc(-c3ccsc3)c12 | 35.6 | 45.2 | 66.4 | 37.3 | 43.5 | 57.7 | 85.4 | 56.2 |  |  |  |  |  |  |  | 
Nc1ncnn2c([C@@H]3O[C@H](CO)[C@@H](O)[C@H]3O)cc(-c3ccccc3)c12 | > 100 | 82.6 | > 100 | > 100 | > 100 | 75.1 | > 100 | 65.2 |  |  |  |  |  |  |  | 
COc1cc([C@@H]2c3cc4c(cc3[C@@H](O[C@@H]3O[C@@H]5CO[C@@H](C)O[C@H]5[C@H](O)[C@H]3O)[C@H]3COC(=O)[C@H]23)OCO4)cc(OC)c1O [ETOPOSIDE] |  |  |  |  |  |  |  |  | 89.89 | 1.66 | 89.31 |  |  |  |  | 
Nc1ncnn2c([C@@H]3O[C@H](CO)[C@@H](O)[C@H]3O)cc(-c3ccc(Cl)cc3)c12 | 45.9 | 59.3 | 47.8 | 37.9 | 40.2 | 32.6 | 35.1 | 56.7 |  |  |  |  |  |  |  | 
Nc1ncnn2c([C@@H]3O[C@H](CO)[C@@H](O)[C@H]3O)cc(-c3ccc(F)cc3)c12 | 55.5 | 42.5 | > 100 | 68.3 | > 100 | 65.6 | 39.3 | 65.6 |  |  |  |  |  |  |  | 
Nc1ncnn2c([C@@H]3O[C@H](CO)[C@@H](O)[C@H]3O)cc(C#Cc3cccs3)c12 | 26.6 | 65.5 | > 100 | > 100 | 50.1 | > 100 | 33.4 | 32 |  |  |  |  |  |  |  | 
COc1ccc(-c2cc([C@@H]3O[C@H](CO)[C@@H](O)[C@H]3O)n3ncnc(N)c23)cc1 | 69.3 | 47.1 | 76.4 | > 100 | 62.6 | 40.3 | 41.7 | 43.9 |  |  |  |  |  |  |  | 
Nc1ncnn2c([C@@H]3O[C@H](CO)[C@@H](O)[C@H]3O)cc(-c3ccoc3)c12 | 1.5 | 1.4 | 2.1 | 0.5 | 0.3 | 1 | 0.1 | 0.9 | 1.54 | 0.13 | 3.74 | Active | Dose-dependent effect | Active | Non-Toxic | Active
Nc1ncnn2c([C@@H]3O[C@H](CO)[C@@H](O)[C@H]3O)cc(-c3ccc(F)cc3F)c12 | 93.3 | 59.5 | 69.7 | 99.3 | 59.1 | 43.5 | 68.2 | 50.9 |  |  |  |  |  |  |  | 
Nc1ncnn2c([C@@H]3O[C@H](CO)[C@@H](O)[C@H]3O)cc(C#Cc3ccc(F)cc3)c12 | 79.4 | > 100 | > 100 | > 100 | 89 | > 100 | > 100 | 55.4 |  |  |  |  |  |  |  | 
Nc1ncnn2c([C@@H]3O[C@H](CO)[C@@H](O)[C@H]3O)cc(-c3ccccc3F)c12 | > 100 | > 100 | > 100 | > 100 | 95.3 | > 100 | > 100 | > 100 |  |  |  |  |  |  |  | 
Nc1ncnn2c([C@@H]3O[C@H](CO)[C@@H](O)[C@H]3O)cc(-c3ccccc3Cl)c12 | > 100 | > 100 | > 100 | > 100 | 76.1 | > 100 | 78.5 | 54.9 |  |  |  |  |  |  |  | 
CCCCC#Cc1cc([C@@H]2O[C@H](CO)[C@@H](O)[C@H]2O)n2ncnc(N)c12 | 1.7 | 2.9 | 2.4 | 0.4 | 0.2 | 1 | 0.4 | 1 | 0.35 | 0.31 | 1.57 | Active | Dose-dependent effect | Active | Non-Toxic | Active
Cc1ccccc1-c1cc([C@@H]2O[C@H](CO)[C@@H](O)[C@H]2O)n2ncnc(N)c12 | > 100 | > 100 | > 100 | 48.4 | 66 | > 100 | 94.1 | 97.5 |  |  |  |  |  |  |  | 
Nc1ncnn2c([C@@H]3O[C@H](CO)[C@@H](O)[C@H]3O)cc(/C=C/c3ccccc3)c12 | 3.7 | 4.8 | 3.1 | 2 | 1.3 | 3.9 | 1.7 | 2.6 | 0 | 0.05 | 0.22 | Active | Dose-dependent effect |  | Non-Toxic | Active
